Test results as given in article PMC5011342, “A high throughput drug screening assay to identify compounds that promote oligodendrocyte differentiation using acutely dissociated and purified oligodendrocyte precursor cells” (BMC Research Notes, 2016).
Where two headings read alike, the source gives them in different places.

Assays:
[1] = system: acutely dissociated and purified rat OPCs; assay: Acute OL differentiation assay (MBP expression/cell, immunofluorescent image quantification); type: cell-based; conditions: Rattus norvegicus, sheet "All OLga data"
Method in brief: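 Oligodendrocyte precursor cells were enriched from P6-P7 Sprague–Dawley rat brains by immunopanning (RAN-2 and GalC depletion, O4 selection), plated at 5000 cells/well in serum-free, mitogen-free differentiation media on PDL/laminin 96-well view plates, centrifuged at 200×g, and pre-incubated 1–2 h before test compounds were added in quadruplicate. On DIV4, cells were fixed, stained for MBP and DAPI, imaged automatically, and MBP expression per cell was quantified.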

expanded OPCs = assay: cells; conditions: for viability at 0.1 µM / viability at 1 µM / viability at 10 µM: Rattus norvegicus, 72 h; for 0.1 µM (% DMSO) / 1 µM (% DMSO) / 10 µM (% DMSO): alamarBlue viability of expanded OPCs, relative to DMSO control; for 0.1 µM (% DMSO): compound at 0.1 µM; for 1 µM (% DMSO): compound at 1 µM; for 10 µM (% DMSO): compound at 10 µM
Method in brief: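 Expanded OPCs seeded at 10,000 cells/well in differentiation media, then exposed to NCC library compounds at 10, 1 and 0.1 µM (quadruplicate, 0.1% DMSO) for three days. Viability read as alamarBlue fluorescence (560/590 nm) after 4 h at 37 °C; tunicamycin 5 ng/ml served as toxicity control.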

[2] = 0.4 uM test compound, relative to quetiapine, read-out: OL differentiation, 0.4 uM (% Quet)
[3] = 2 uM test compound, relative to quetiapine, read-out: OL differentiation, 2 uM (% Quet)
[4] = read-out: 0.1 µM (% DMSO), alamarBlue viability, NCC library compound at 0.1 µM, sheet "All Tox data"
[5] = read-out: 1 µM (% DMSO), alamarBlue viability, NCC library compound at 1 µM, sheet "All Tox data"
[6] = read-out: 10 µM (% DMSO), alamarBlue viability, NCC library compound at 10 µM, sheet "All Tox data"
[7] = test compound at 0.4 uM, NCC library screen, relative to quetiapine, read-out: 0.4 uM (% Quet)
[8] = test compound at 2 uM, NCC library screen, relative to quetiapine, read-out: 2 uM (% Quet)
[9] = test compound at 10 uM, NCC library screen, relative to quetiapine, read-out: 10 uM (% Quet)
[10] = test compound at 0.4 uM, MBP expression relative to quetiapine, NCC library screen, read-out: 0.4 uM (% Quet)
[11] = test compound at 2 uM, MBP expression relative to quetiapine, NCC library screen, read-out: 2 uM (% Quet)
[12] = read-out: 0.1 µM (% DMSO), alamarBlue viability of expanded OPCs, compound at 0.1 µM, sheet All Tox data
[13] = read-out: 1 µM (% DMSO), alamarBlue viability of expanded OPCs, compound at 1 µM, sheet All Tox data
[14] = read-out: 10 µM (% DMSO), alamarBlue viability of expanded OPCs, compound at 10 µM, sheet All Tox data
[15] = 10 uM test compound, relative to quetiapine, read-out: OL differentiation, 10 uM (% Quet)

Row | SMILES | activation at 2 µM [1, 3] | viability at 0.1 µM (expanded OPCs; [4]) | viability at 1 µM (expanded OPCs; [5]) | viability at 10 µM (expanded OPCs; [6]) | activation at 2 µM [1, 8] | viability at 0.1 µM (expanded OPCs; [12]) | viability at 1 µM (expanded OPCs; [13]) | viability at 10 µM (expanded OPCs; [14]) | other results
1 | CC(C)(O)c1ccccc1CC[C@@H](SCC1(CC(=O)O)CC1)c1cccc(/C=C/c2ccc3ccc(Cl)cc3n2)c1 [Montelukast] | -31.7% | 95.5% | 83% | 11% |  |  |  |  | activation at 0.4 µM [1, 2]: 12.9%
2 | COc1ccc(CC2c3cc(OC)c(OC)cc3CC[N+]2(C)CCC(=O)OCCCCCOC(=O)CC[N+]2(C)CCc3cc(OC)c(OC)cc3C2Cc2ccc(OC)c(OC)c2)cc1OC (stereo not drawn) [Atracurium] |  | 84.6% | 75.3% | 56.2% | -83% |  |  |  | activation at 0.4 µM [1, 7]: 9.5%
3 | CC[N+](C)(C)c1cccc(O)c1 [Edrophonium] |  | 93% | 91% | 100% | 10.5% |  |  |  | activation at 10 µM [1, 9]: 10.8%
4 | CO[C@H]1/C=C/O[C@@]2(C)Oc3c(C)c(O)c4c(c3C2=O)C2=NC3(CCN(CC(C)C)CC3)NC2=C(NC(=O)/C(C)=C\C=C\[C@H](C)[C@H](O)[C@@H](C)[C@@H](O)[C@@H](C)[C@H](OC(C)=O)[C@@H]1C)C4=O [Rifabutin] | -31.8% |  |  |  |  | 86.7% | 79.7% | 37% | activation at 0.4 µM [1, 2]: 16.3%; activation at 0.4 µM [1, 10]: -0.04%; activation at 2 µM [1, 11]: -15.6%; 0.1 µM (% DMSO) (expanded OPCs): 95.3 % DMSO; 1 µM (% DMSO) (expanded OPCs): 77.1 % DMSO; 10 µM (% DMSO) (expanded OPCs): 32.3 % DMSO
5 | CCC(C)(C)C(=O)O[C@H]1C[C@@H](C)C=C2C=C[C@H](C)[C@H](CC[C@@H]3C[C@@H](O)CC(=O)O3)[C@H]21 [Simvastatin] |  |  |  |  |  |  |  |  | activation at 0.4 µM [1, 10]: -105%; activation at 2 µM [1, 11]: -140%; 0.1 µM (% DMSO) (expanded OPCs): 157.3 % DMSO; 1 µM (% DMSO) (expanded OPCs): 86.5 % DMSO; 10 µM (% DMSO) (expanded OPCs): 25.7 % DMSO
6 | CCOC(=O)c1ccc(OC(=O)CCCCCNC(=N)N)cc1 [Gabexate] | 12.6% |  |  |  |  | 105% | 109% | 123% | activation at 10 µM [1, 15]: 7.2%
7 | CCCC(C)(COC(N)=O)COC(=O)NC(C)C (stereo not drawn) [Carisoprodol] |  |  |  |  |  |  |  |  | activation at 2 µM [1, 11]: -33%; activation at 10 µM ([1]; test compound at 10 uM, MBP expression relative to quetiapine, NCC library screen, read-out: 10 uM (% Quet)): -33%; 0.1 µM (% DMSO) (expanded OPCs): 92.1 % DMSO; 1 µM (% DMSO) (expanded OPCs): 90.4 % DMSO; 10 µM (% DMSO) (expanded OPCs): 89.3 % DMSO
8 | CCCCCCCCCCC[C@@H](C[C@@H]1OC(=O)[C@H]1CCCCCC)OC(=O)[C@H](CC(C)C)NC=O [Orlistat] | -43.8% |  |  |  |  | 80.3% | 80.1% | 12.5% | activation at 0.4 µM [1, 2]: 4.3%
9 | COc1nc(C)nc(Cl)c1N=C1NCCN1 [Moxonidine] | -1.2% |  |  |  |  | 85.4% | 88.5% | 98.4% | activation at 10 µM [1, 15]: -26.2%
10 | O=C(O)C(Cl)Cl [Dichloroacetic Acid] |  | 99.2% | 83.6% | 83.5% | 0.66% |  |  |  | activation at 10 µM [1, 9]: 13.7%
11 | COc1ccc2[nH]cc(C3=CCNCC3)c2c1 [RU-24969] |  | 83.2% | 62.4% | 36.7% | -15.5% |  |  |  | activation at 0.4 µM [1, 7]: -5.3%
12 | Nc1ccn([C@H]2CC[C@@H](CO)O2)c(=O)n1 [Zalcitabine] | -5.5% | 95.4% | 86.4% | 79.3% |  |  |  |  | activation at 10 µM [1, 15]: -96.7%
13 | CC(C)c1ccc2oc3nc(N)c(C(=O)O)cc3c(=O)c2c1 [Amlexanox] | -11.6% |  |  |  |  | 84.3% | 88.6% | 91.9% | activation at 10 µM [1, 15]: -20%
14 | c1ccc2c(c1)Nc1ccccc1S2 [Phenothiazine] |  | 82.8% | 85.1% | 51.9% | -12.1% |  |  |  | activation at 0.4 µM [1, 7]: 4%
